Drawing on PMC4263427 (Biochemistry, 2014), this text covers Ki for 1 compound.

This experiment deals with T1, class II fructose 1,6-bisphosphate aldolase (SaFBA) (Staphylococcus aureus, UniProt Q5HE75).
T1 sequence (Q5HE75 1-286): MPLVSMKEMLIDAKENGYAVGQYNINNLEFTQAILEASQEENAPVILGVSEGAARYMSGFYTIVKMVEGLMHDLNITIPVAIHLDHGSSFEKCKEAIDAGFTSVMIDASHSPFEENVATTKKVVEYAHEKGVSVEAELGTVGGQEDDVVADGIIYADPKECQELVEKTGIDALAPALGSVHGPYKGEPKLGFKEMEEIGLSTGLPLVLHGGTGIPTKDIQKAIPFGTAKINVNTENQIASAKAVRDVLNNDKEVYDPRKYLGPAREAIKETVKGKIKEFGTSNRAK
Put plainly: coupled fluorescence. It counts as biochemical.

As usually defined, the Ki is a measure of affinity in units of concentration, obtained from inhibition or displacement. With `O=C(O)c1ccc2cccc(O)c2n1` [HCA, 8-hydroxyquinoline-2-carboxylic acid], the Ki was 96 ± 22 µM.
